From ChEMBL document CHEMBL1151107, “Inhibition of dopamine beta-hydroxylase by goitrin, a natural antithyroid compound” (J Nat Prod, 1988)

Legend:
[1] = molecular target: T1, Dopamine beta-hydroxylase (Bos taurus) (UniProt P15101); test: Inhibition of bovine adrenal dopamine beta-hydroxylase assessed as norepinephrine formation per mg of protein at 0.2 mM after 45 mins
T1 sequence (whole entry): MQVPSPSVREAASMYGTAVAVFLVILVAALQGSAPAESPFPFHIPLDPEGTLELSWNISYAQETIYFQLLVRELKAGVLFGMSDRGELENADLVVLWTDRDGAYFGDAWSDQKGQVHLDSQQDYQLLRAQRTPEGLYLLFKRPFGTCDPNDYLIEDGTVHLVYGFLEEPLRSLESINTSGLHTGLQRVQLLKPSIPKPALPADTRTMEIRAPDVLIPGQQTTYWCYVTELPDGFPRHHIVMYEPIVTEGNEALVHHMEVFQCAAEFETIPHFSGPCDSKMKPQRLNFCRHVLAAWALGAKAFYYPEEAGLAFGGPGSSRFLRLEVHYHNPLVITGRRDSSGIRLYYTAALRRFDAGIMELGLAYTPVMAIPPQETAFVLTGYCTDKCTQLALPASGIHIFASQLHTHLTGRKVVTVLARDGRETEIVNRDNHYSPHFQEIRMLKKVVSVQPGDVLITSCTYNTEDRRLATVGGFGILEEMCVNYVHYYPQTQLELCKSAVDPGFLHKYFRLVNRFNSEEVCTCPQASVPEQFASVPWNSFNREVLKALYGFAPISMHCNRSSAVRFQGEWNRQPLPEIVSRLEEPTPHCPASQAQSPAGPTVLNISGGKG

Rattus norvegicus [2] = test: Inhibition of dopamine beta-hydroxylase in Sprague-Dawley rat assessed as decrease in brain norepinephrine level at 50 mg/kg, ip after 6 hrs by liquid chromatography (RVb=0.206+/-0.022); assay type: functional; conditions: route intraperitoneal
Rattus norvegicus [3] = test: Inhibition of dopamine beta-hydroxylase in Sprague-Dawley rat assessed as decrease in brain norepinephrine level at 50 mg/kg, ip after 2.5 hrs by liquid chromatography (RVb=0.216+/-0.025); assay type: functional; conditions: route intraperitoneal
Rattus norvegicus [4] = test: Inhibition of dopamine beta-hydroxylase in Sprague-Dawley rat assessed as decrease in brain norepinephrine level at 50 mg/kg, ip after 1 hr by liquid chromatography (RVb=0.222+/-0.069); assay type: functional; conditions: route intraperitoneal
[5] = molecular target: T1, Dopamine beta-hydroxylase (Bos taurus); test: Inhibition of bovine adrenal dopamine beta-hydroxylase assessed as norepinephrine formation per mg of protein at 0.1 mM after 45 mins
[6] = molecular target: T1, Dopamine beta-hydroxylase (Bos taurus); test: Inhibition of bovine adrenal dopamine beta-hydroxylase at 0.2 mM
[7] = Drug level in Sprague-Dawley rat heart at 50 mg/kg, ip after 4 hrs; assay type: ADME, organism-based; set-up: dose 50 mg/kg, route intraperitoneal; conditions: read-out: Drug uptake
Rattus norvegicus [8] = test: Inhibition of dopamine beta-hydroxylase in Sprague-Dawley rat assessed as increase in adrenal dopamine level at 50 mg/kg, ip after 4 hrs by liquid chromatography (RVb=5.9+/-1.0); assay type: functional; conditions: route intraperitoneal
Rattus norvegicus [9] = test: Inhibition of dopamine beta-hydroxylase in Sprague-Dawley rat assessed as increase in cardiac dopamine level at 50 mg/kg, ip after 4 hrs by liquid chromatography (RVb=0.023+/-0.005); assay type: functional; conditions: route intraperitoneal
[10] = Drug level in Sprague-Dawley rat brain at 50 mg/kg, ip after 4 hrs; assay type: ADME, organism-based; set-up: dose 50 mg/kg, route intraperitoneal; conditions: read-out: Drug uptake
[11] = molecular target: T1, Dopamine beta-hydroxylase (Bos taurus); test: Inhibition of bovine adrenal dopamine beta-hydroxylase at 0.1 mM

| Activity [1] [nmol] | Activity [5] [nmol] | inhibition [6] [%] | concentration at 4 h [7] [ng/g] | concentration at 4 h [10] [ng/g] | inhibition [11] [%] | Structure (SMILES) | Activity (Rattus norvegicus [2]) [µg/g] | Activity (Rattus norvegicus [3]) [µg/g] | Activity (Rattus norvegicus [4]) [µg/g] | Activity (Rattus norvegicus [8]) [µg/g] | Activity (Rattus norvegicus [9]) [µg/g] |
| --- | --- | --- | --- | --- | --- | --- | --- | --- | --- | --- | --- |
| 53 |  |  |  |  |  | Cn1ccnc1S [METHIMAZOLE] | 0.076 | 0.143 | 0.216 |  |  |
|  | 62 |  |  |  |  | C=C[C@@H]1CNC(=S)O1 |  |  |  |  |  |
| 49 | 77 | 78 | 22300 | 21000 | 55 | C=CC1CNC(=S)O1 (stereo unspecified) | 0.092 | 0.158 | 0.249 | 10 | 0.071 |
